How the values were obtained:
female rats = assay: estrus suppression assay (duration of suppression of vaginal cornification after one subcutaneous injection); type: in vivo, rats of the Sprague-Dawley strain; conditions: for effect of formulation on results: aqueous microcrystalline suspension of particle size 3 to 10µ (50% cumulative oversize, Coulter); for duration of action in words: cyclic esters of the series of Table 1 and Fig. 1; for durations of suppression: aqueous microcrystalline suspension, subcutaneous; for suppression of estrus compared with DMPA at 16 mg/rat: ester at 8 mg/rat, aqueous microcrystalline suspension (Figure 1)
Experimental: These were subjected to a biological screening programme designed to uncover new and effective sustained- release injectable contraceptives, the compounds being tested as injectable oily solutions or aqueous suspensions. The initial test was to determine the duration of suppression of estrus in female rats, with DMPA and norethisterone enanthate being used as comparison-standards. The most promising compounds were then tested in primates.
The bioassay used to determine the duration of action of the contraceptive compositions involved measuring the suppression of estrus in female rats. The compositions were used at four dosage levels, i.e. 2, 4, 8 and 16 mg/rat.
The long-acting properties of each formulation were determined in estrus suppression assay employing virgin, mature (180-200 g) cycling rats of the Sprague-Dawley strain purchased from Charles River Laboratories, USA. Upon receipt the animals were smeared daily for cyclicity and only those animals showing two consecutive normal cycles were used. Each animal was injected subcutaneously with 0.8 ml of the test preparation on the same day regardless of the stage of the cycle. Each compound was initially tested on ten rats. A series of initial tests with injections of 16 mg/animal were followed by studies at dose levels of 8, 4 and 2 mg/animal where necessary. An aqueous microcrystalline suspension of medroxyprogesterone acetate was used as standard. Daily smears were taken starting on the day after injection and continued until such time that cornification of vaginal epithelium was observed and cycling was re-established. Duration of cornification suppression is expressed as the total number of days minus two. The appearance of cornification was not always followed by the return of normal estrus cycles.

[1] = pharmacokinetics in the monkey (circulating levo norgestrel after injection); conditions: monkey Macaca mulata
[2] = 8 mg/rat, majority of experiments terminated at 91 days post injection

C#C[C@]1(OC(=O)C2CCCC2)CC[C@H]2[C@@H]3CCC4=CC(=NO)CC[C@@H]4[C@H]3CC[C@@]21CC [levo-norgestrel cyclopentylcarboxylate 3-oxime]
effect of formulation on results (female rats): better results

C#C[C@]1(OC(=O)C2CCCC2)CC[C@H]2[C@@H]3CCC4=CC(=O)CC[C@@H]4[C@H]3CC[C@@]21CC [cyclopentylcarboxylate, Levo-norgestrel 17β-cyclopentyl carboxylate, reference compound]
effectiveness in words (female rats; 16 mg dose): relatively ineffective
duration of action in words (female rats): short acting

C#C[C@]1(OC(=O)C2CC2)CC[C@H]2[C@@H]3CCC4=CC(=O)CC[C@@H]4[C@H]3CC[C@@]21CC [levo-norgestrel cyclopropylcarboxylate]
durations of suppression (female rats; 4 mg/rat): 55.6 days
durations of suppression (female rats; [2]): 74.0 days
duration of action in words (female rats): long-acting
suppression of estrus compared with DMPA at 16 mg/rat (female rats): better suppression than DMPA at a dosage of 16 mg/rat

C#C[C@]1(OC(=O)C2CCC2)CC[C@H]2[C@@H]3CCC4=CC(=O)CC[C@@H]4[C@H]3CC[C@@]21CC [levo-norgestrel cyclobutylcarboxylate]
durations of suppression (female rats; 2 mg/rat): 31.9 days
durations of suppression (female rats; 4 mg/rat): 55.7 days
durations of suppression (female rats; [2]): 89.2 days
durations of suppression (female rats; 16 mg/rat): > 91 days
effect of formulation on return to estrus (female rats; Figure II: aqueous microcrystalline suspension 3 to 10µ versus solution in sesame oil or in ethyl oleate, groups of ten rats): longer term effect of the ester when micro-dispersed in aqueous medium
duration of action in words (female rats): long-acting
suppression of estrus compared with DMPA at 16 mg/rat (female rats; listed as cyclobutyl carboxylate): better suppression than DMPA at a dosage of 16 mg/rat
suppression of estrus compared with DMPA at 16 mg/rat (female rats; listed as cyclobutylcarboxylate): the same inhibition as DMPA at 16 mg
activity relative to the aqueous suspension (female rats; microcrystalline suspension in ethyl oleate (Table 11)): approximately 40%
activity by formulation (female rats; solution in a 50:50 mixture of ethyl oleate and benzyl benzoate (BB), compared with the suspensions): Further reduction in activity
time during which measurable levels of levo norgestrel are still present in the circulation after injection [1]: > 100 days

C#C[C@]1(OC(=O)CCC)CC[C@H]2[C@@H]3CCC4=CC(=O)CC[C@@H]4[C@H]3CC[C@@]21CC [levo-norgestrel butanoate]
durations of suppression (female rats; 2 mg/rat): 34.4 days
durations of suppression (female rats; 4 mg/rat): 65.1 days
durations of suppression (female rats; [2]): < 91 days
suppression of estrus compared with DMPA at 16 mg/rat (female rats): better suppression than DMPA at a dosage of 16 mg/rat

norethisterone enanthate [reference compound]
average duration (female rats; oily solution, rat, dose not given): 23.1 days

CC(=O)O[C@]1(C(C)=O)CC[C@H]2[C@@H]3C[C@H](C)C4=CC(=O)CC[C@]4(C)[C@H]3CC[C@@]21C [DMPA, medroxyprogesterone acetate, reference compound]
durations of suppression (female rats; 2 mg/rat): 20.9 days
durations of suppression (female rats; 4 mg/rat): 28.2 days
durations of suppression (female rats; [2]): 55.5 days
durations of suppression (female rats; 16 mg/rat): 60.0 days
average suppression duration (female rats; microcrystalline suspension, rat, dose not given): 63.7 days

C#C[C@]1(OC(=O)C2CCCCC2)CC[C@H]2[C@@H]3CCC4=CC(=NO)CC[C@@H]4[C@H]3CC[C@@]21CC [levo-norgestrel cyclohexylcarboxylate 3-oxime]
effect of formulation on results (female rats): better results
